Values after ≈ are worked out from the molar mass of the structure shown. Where two headings read alike, the source gives them in different places.
Legend:
[1] = test system: Lactobacillus iners ATCC 55195; test: MIC by broth microdilution method (CLSI M07-A8 / M11-A7); assay type: cell-based; conditions: ATCC55195
Protocol: The in vitro activity of nifuratel sulfoxide racemate, R-nifuratel sulfoxide and S-nifuratel sulfoxide was tested on a panel of bacteria, which included both Gram positive and Gram negative bacteria. The minimum inhibitory concentrations (MICs) of the compounds were determined by the broth microdilution method or by the agar dilution method, according to the National Committee for Clinical Laboratory Standards (CLSI) reference methods […]-A8 and M11-A7.

[2] = Metabolic profiling of nifuratel in human urines by LC/MS/MS after oral administration; assay type: in vivo
Protocol: As a matter of fact, metabolic profiling of nifuratel, following oral administration, was assessed in human urines by liquid chromatography/tandem mass spectrometry (LC/MS/MS).
More in details, urines of two subjects treated orally with nifuratel were collected at the following time-points: pre-dose, 0-4, 4-8, 8-12, 12-24, 24-36 and 36-48 h after treatment.
Nifuratel was not detected in any of the urine samples. […] Based on such a discovery, the applicant has performed both in vitro and in vivo tests in order to establish whether nifuratel sulfoxide is endowed with anti-bacterial activity.

[3] = test system: Staphylococcus aureus (MRSA); test: MIC by broth microdilution method (CLSI M07-A8 / M11-A7); efficiency coefficient derived; assay type: cell-based
Protocol: (§1) The in vitro activity of nifuratel sulfoxide racemate, R-nifuratel sulfoxide and S-nifuratel sulfoxide was tested on a panel of bacteria, which included both Gram positive and Gram negative bacteria.
(§2) The minimum inhibitory concentrations (MICs) of the compounds were determined by the broth microdilution method or by the agar dilution method, according to the National Committee for Clinical Laboratory Standards (CLSI) reference methods M07-A8 and M11-A7.
(§3) The efficiency coefficient (EC) of nifuratel sulfoxide vs. nifuratel was calculated for each tested strain as follows: EC = relative oral bioavailability*[…] [formula]
(§4) Where: • nifS = nifuratel sulfoxide • nif = nifuratel • EC = 1 is indicative of equivalent efficiency between nifuratel sulfoxide and nifuratel. • EC < 1 is indicative of a lower efficiency of nifuratel sulfoxide vs. nifuratel • EC > 1 is indicative of a higher efficiency of nifS vs. nif

[4] = test system: Klebsiella pneumonia ATCC 10031; test: as above; assay type: cell-based; conditions: Klebsiella pneumoniae, ATCC10031
Protocol: as §1, §2, §3, §4

[5] = test system: Salmonella paratyphi B ATCC 10719; test: as above; assay type: cell-based; conditions: Salmonella enterica, read-out: MIC
Protocol: as §1, §2, §3, §4

[6] = test system: Salmonella typhimurium ATCC 14028; test: as above; assay type: cell-based; conditions: Salmonella enterica
Protocol: as §1, §2, §3, §4

[7] = test system: Neisseria gonorrhoeae ATCC 19424; test: as above; assay type: cell-based; conditions: ATCC19424
Protocol: as §1, §2, §3, §4

[8] = test system: Escherichia coli ATCC 11775; test: as above; assay type: cell-based; conditions: ATCC11775
Protocol: as §1, §2, §3, §4

[9] = test system: Proteus mirabilis ATCC 14153; test: as above; assay type: cell-based; conditions: ATCC14153
Protocol: as §1, §2, §3, §4

[10] = test system: Shigella sonnei ATCC 11060; test: as above; assay type: cell-based; conditions: ATCC11060, read-out: MIC
Protocol: as §1, §2, §3, §4

[11] = test system: Micrococcus pyogenes ATCC 11631; test: as above; assay type: cell-based; conditions: Staphylococcus aureus, ATCC11631
Protocol: as §1, §2, §3, §4

[12] = test system: Atopobium vaginae; test: MIC by agar dilution method (CLSI M07-A8 / M11-A7); efficiency coefficient derived; assay type: cell-based; conditions: for MIC: Fannyhessea vaginae
Protocol: as §1, §2, §3, §4

[13] = test system: Gardnerella vaginalis; test: as above; assay type: cell-based; conditions: for MIC: Gardnerella vaginalis
Protocol: as §1, §2, §3, §4

[14] = Rat pharmacokinetics in plasma, non compartmental analysis; assay type: in vivo, male rats
Protocol: The pharmacokinetic profiles in plasma of nifuratel and nifuratel sulfoxide were tested after intravenous administration (2mg/kg) and oral gavage (15mg/kg) in male rats. […]

[15] = 2mg/kg intravenous administration, male rats
[16] = 15mg/kg oral administration, male rats
[17] = IV (2mg/Kg), male rats, plasma, mean
[18] = rat, in vivo, IV (2mg/Kg), male rats, plasma, mean
[19] = rat, in vivo, XOS (15mg/kg), oral gavage, male rats, plasma, mean
[20] = male, rat, in vivo, iv, 2 mg/kg
[21] = male, rat, in vivo, po, 15 mg/kg

C[S+]([O-])CC1CN(/N=C/c2ccc([N+](=O)[O-])o2)C(=O)O1 (racemic) [Nifuratel sulfoxide, nifuratel sulfoxide]
MIC ([1]; broth microdilution, Lactobacillus iners ATCC 55195, read-out: MIC): 16 µg/mL (≈ 53.1 µM)
metabolite found in urine ([2]; two subjects treated orally with nifuratel, attributed by mass spectrometry): major metabolite
MIC ([3]; broth microdilution, Staphylococcus aureus (MRSA), read-out: MIC): 16 µg/mL (≈ 53.1 µM)
MIC ([4]; broth microdilution, Klebsiella pneumonia ATCC 10031, read-out: MIC): 16 µg/mL (≈ 53.1 µM)
MIC [5]: 8 µg/mL (≈ 26.6 µM)
MIC ([6]; broth microdilution, Salmonella typhimurium ATCC 14028, read-out: MIC): 32 µg/mL (≈ 106 µM)
MIC ([7]; broth microdilution, Neisseria gonorrhoeae ATCC 19424, read-out: MIC): 2 µg/mL (≈ 6.64 µM)
MIC ([8]; broth microdilution, Escherichia coli ATCC 11775, read-out: MIC): 16 µg/mL (≈ 53.1 µM)
MIC ([9]; broth microdilution, Proteus mirabilis ATCC 14153, read-out: MIC): 8 µg/mL (≈ 26.6 µM)
MIC [10]: 16 µg/mL (≈ 53.1 µM)
MIC ([11]; broth microdilution, Micrococcus pyogenes ATCC 11631, read-out: MIC): 32 µg/mL (≈ 106 µM)
MIC ([12]; CCUG38953, agar dilution, strain CCUG 38953, read-out: MIC): 2 µg/mL (≈ 6.64 µM)
MIC ([12]; CCUG39382, agar dilution, strain CCUG 39382, read-out: MIC): 1 µg/mL (≈ 3.32 µM)
MIC ([12]; CCUG42099, agar dilution, strain CCUG 42099, read-out: MIC): 2 µg/mL (≈ 6.64 µM)
MIC ([12]; CCUG43049, agar dilution, strain CCUG 43049, read-out: MIC): 4 µg/mL (≈ 13.3 µM)
MIC ([12]; CCUG44061, agar dilution, strain CCUG 44061, read-out: MIC): 1 µg/mL (≈ 3.32 µM)
MIC ([12]; CCUG44156, agar dilution, strain CCUG 44156, read-out: MIC): 1 µg/mL (≈ 3.32 µM)
MIC ([12]; CCUG48515, agar dilution, strain CCUG 48515, read-out: MIC): 2 µg/mL (≈ 6.64 µM)
MIC ([12]; CCUG55226, agar dilution, strain CCUG 55226, read-out: MIC): 4 µg/mL (≈ 13.3 µM)
MIC ([12]; CCUG55227, agar dilution, strain CCUG 55227, read-out: MIC): 4 µg/mL (≈ 13.3 µM)
in vitro antimicrobial activity (in words) ([12]; tested Atopobium vaginae strains): good activity
MIC ([13]; ATCC14018, agar dilution, strain ATCC 14018, read-out: MIC): 8 µg/mL (≈ 26.6 µM)
MIC ([13]; agar dilution, strain C2, read-out: MIC): 16 µg/mL (≈ 53.1 µM)
MIC ([13]; agar dilution, strain D2, read-out: MIC): 32 µg/mL (≈ 106 µM)
MIC ([13]; agar dilution, strain E2, read-out: MIC): 32 µg/mL (≈ 106 µM)
MIC ([13]; agar dilution, strain G2, read-out: MIC): 32 µg/mL (≈ 106 µM)
MIC ([13]; agar dilution, strain H2, read-out: MIC): 8 µg/mL (≈ 26.6 µM)
MIC ([13]; agar dilution, strain J2, read-out: MIC): 32 µg/mL (≈ 106 µM)
MIC ([13]; agar dilution, strain K2, read-out: MIC): 32 µg/mL (≈ 106 µM)
in vitro antimicrobial activity (in words) ([13]; tested Gardnerella vaginalis strains): good activity
AUC, folds higher than nifuratel [14, 15]: over 5 folds
Cmax, folds higher than nifuratel [14, 15]: 4 folds
clearance, folds slower with respect to nifuratel [14, 15]: over 5 folds
AUC, folds higher than nifuratel [14, 16]: 30 folds
Cmax, folds higher than nifuratel [14, 16]: 37 folds
increased bioavailability versus nifuratel [14, 16]: 5 fold
T1/7 [14, 17]: 15.5 min
Tlast [14, 17]: 120 min
Vss [14, 17]: 0.865 kg⁻¹
Mean Fpo ([14]; XOS (15mg/kg), oral gavage, male rats): 11%
Tlast ([14]; XOS (15mg/kg), oral gavage, male rats, plasma, mean): 240 min
AUC(0-inf) [14, 18]: 703 ng·h/mL
AUC(0-t) [14, 18]: 700 ng·h/mL
MRT [14, 18]: 17.7 min
clearance [14, 18]: 47.5 mL/min/kg
C0 ([14]; rat, in vivo, IV (2mg/Kg), male rats, plasma, mean, read-out: C0): 2820 ng/mL
concentration at 120 min ([14]; rat, in vivo, IV (2mg/Kg), male rats, plasma, mean, read-out: Clast): 73 ng/mL
Cmax ([14]; rat, in vivo, IV (2mg/Kg), male rats, plasma, mean, read-out: Cmax): 2220 ng/mL
Tmax ([14]; rat, in vivo, IV (2mg/Kg), male rats, plasma, mean, read-out: Tmax (converted)): 2 min
AUC(0-t) [14, 19]: 605 ng·h/mL
MRT [14, 19]: 94 min
half-life [14, 19]: 128 min
concentration at 240 min ([14]; rat, in vivo, XOS (15mg/kg), oral gavage, male rats, plasma, mean, read-out: Clast): 80.6 ng/mL
Cmax ([14]; rat, in vivo, XOS (15mg/kg), oral gavage, male rats, plasma, mean, read-out: Cmax): 298 ng/mL
Tmax ([14]; rat, in vivo, XOS (15mg/kg), oral gavage, male rats, plasma, mean, read-out: Tmax (converted)): 23 min

CSCC1CN(/N=C/c2ccc([N+](=O)[O-])o2)C(=O)O1 (stereo not drawn) [Nifuratel]
MIC ([1]; Lactobacillus iners): 16 µg/mL (≈ 56.1 µM)
detection of parent compound in urine samples ([2]; in vivo, po): not detected
MIC ([3]; Staphylococcus aureus, MRSA): 2 µg/mL (≈ 7.01 µM)
MIC [4]: 2 µg/mL (≈ 7.01 µM)
MIC [5]: 2 µg/mL (≈ 7.01 µM)
MIC [6]: 4 µg/mL (≈ 14 µM)
MIC ([7]; Neisseria gonorrhoeae): 0.25 µg/mL (≈ 0.876 µM)
MIC ([8]; Escherichia coli): 1 µg/mL (≈ 3.51 µM)
MIC ([9]; Proteus mirabilis): 8 µg/mL (≈ 28 µM)
MIC [10]: 1 µg/mL (≈ 3.51 µM)
MIC [11]: 1 µg/mL (≈ 3.51 µM)
MIC ([12]; CCUG38953): 0.125 µg/mL (≈ 0.438 µM)
MIC ([12]; CCUG39382): 0.25 µg/mL (≈ 0.876 µM)
MIC ([12]; CCUG42099): 0.5 µg/mL (≈ 1.75 µM)
MIC ([12]; CCUG43049): 0.25 µg/mL (≈ 0.876 µM)
MIC ([12]; CCUG44061): 0.5 µg/mL (≈ 1.75 µM)
MIC ([12]; CCUG44156): 0.5 µg/mL (≈ 1.75 µM)
MIC ([12]; CCUG48515): 1 µg/mL (≈ 3.51 µM)
MIC ([12]; CCUG55226): 1 µg/mL (≈ 3.51 µM)
MIC ([12]; CCUG55227): 0.25 µg/mL (≈ 0.876 µM)
MIC ([13]; ATCC14018, agar dilution, strain ATCC 14018): 2 µg/mL (≈ 7.01 µM)
MIC ([13]; agar dilution, strain C2): 8 µg/mL (≈ 28 µM)
MIC ([13]; agar dilution, strain D2): 4 µg/mL (≈ 14 µM)
MIC ([13]; agar dilution, strain E2): 2 µg/mL (≈ 7.01 µM)
MIC ([13]; agar dilution, strain G2): 2 µg/mL (≈ 7.01 µM)
MIC ([13]; agar dilution, strain H2): 1 µg/mL (≈ 3.51 µM)
MIC ([13]; agar dilution, strain J2): 2 µg/mL (≈ 7.01 µM)
MIC ([13]; agar dilution, strain K2): 4 µg/mL (≈ 14 µM)
C0 [14, 20]: 798 ng/mL
T1/7 [14, 20]: 24 min
Tlast [14, 20]: 120 min
concentration at 120 min [14, 20]: 5 ng/mL
Cmax [14, 21]: 8 ng/mL
Tmax [14, 21]: 30 min
Vss ([14]; rat, in vivo, iv, 2 mg/kg): 4.5 kg⁻¹
